Assay results as given in patent US20240139185A1, “COMPOUNDS THAT PARTICIPATE IN COOPERATIVE BINDING AND USES THEREOF” (Revolution Medicines, Inc., priority 2018, published 2024).

Legend:
cyclophilin A (CYPA) = cyclophilin A (CYPA) (Homo sapiens, UniProt P62937); assay: CYPA-compound binary complex formation by SPR; details: read-out: CYPA Binding Affinity
Description: In order to determine the affinity of compounds of the invention for cyclophilin A (CYPA), we employed surface plasmon resonance binding analysis using the following reagents, instruments and protocol as supplied by the instrument manufacturer.
Reagents and Instrument • 1. Instrument: Biacore S200 (GE Healthcare Life Sciences) • 2. Running buffer: 1×HBS-P+ (1×HBS supplemented with 0.05% Tween20), pH7.4, and 2% DMSO. • 3. Ligand: CypA-Avi • 4. Analyte: Serial dilution of WDB compounds from 50 μM to 0 μM, 2-fold dilution, 10 points (10 mM stock concentration). • 5. Sensor kit: Biotin CAPture Kit (BR28-9202-34, GE Healthcare Life Sciences) • 6. Regeneration buffer: 1 volume of 1 M NaOH and 3 volumes of 8 M guanidine hydrochloride (supplied with CAPture Kit, BR28-9202-34, GE Healthcare Life Sciences)
Experimental Procedure • 1. Capture of CAPreagent: 2 μl/min for 60 seconds. • 2. Immobilization of ligand CypA: Use Fc1 as the reference cell; immobilize CypA at 4 μg/ml using 5 μl/min flowrate on Fc2 (60s), Fc3 (80s) and Fc4 (80s), respectively. • 3. Binding of analytes: Inject WDB compound dilutions sequentially at 50 μl/min for association of 60 seconds. And then let it dissociates in buffer at 50 μl/min for 60 seconds. • 4. Regeneration: 2 injections of regeneration buffer at 30 μl/min for 60 seconds to regenerate the chip surface. • 5. Solvent correction: Run solvent correction at beginning and the end of the run. If run more than 6 compounds, add additional solvent correction every 6 compounds. • 6. Data fitting with built-in Biacore Evaluation Software: Steady-state fitting.

[1] = target: T1, BRAF-GTP-KRAS-G12C complex (Homo sapiens, UniProt P01116+P62937, G12C); assay: KRAS-BRAF complex disruption through competition with CYPA-compound by TR-FRET; details: biochemical BRAF-KRAS G12C-GTP disruption assay EC50, with CYPA
T1 construct: 50 nM of His6-KRas G12C-GTP (1-169); 500 nM of tagless CypA (1-165)
Description: In this example, TR-FRET was used to measure the compound-facilitated disruption of a KRAS-BRAF complex. A mixture of tagless Cyclophilin A, His6-KRAS G12C-GMP-PNP, and GST-BRAF RAS binding domain was added to a 384-well assay plate containing compounds of the invention and incubated for 3 hours. A mixture of Anti-His Eu-W1024 and anti-GST allophycocyanin was then added and the reaction was incubated for an additional 1.5 hours. TR-FRET signal was read on an EnVision microplate reader (Perkin Elmer, Ex 320 nm, Em 665/615 nm). Compounds that facilitate disruption of a KRAS_BRAF complex were identified as those eliciting a decrease in the TR-FRET ratio relative to DMSO control wells. To determine the presenter-dependence of the compound-mediated KRAS-BRAF complex disruption, Cyclophilin A was left out of the initial incubation (see Table 5). To determine G12C specificity of the compound-mediated KRAS-BRAF complex disruption, wild-type KRAS was used instead of G12C KRAS (see Table 5).
Reagents and Instrument • Tagless CYPA; 519 μM in PBS buffer, pH 7.4 • GST BRAF; 110 μM in PBS buffer, pH 7.4 • His6-KRASG12C-GMP-PNP; 50 μM in PBS buffer, pH 7.4 • His6-KRASWT-GMP-PNP; 40 μM in PBS buffer, pH 7.4 • Anti-His Eu-W1024 (LANCE® Eu-W1024; Perkin Elmer) • Anti-GST allophycocyanin (Anti-GST IgG conjugated to SureLight®-Allophycocyanin; Perkin Elmer; Product Number AD0059G) • Test compounds, 10 mM in 100% DMSO • EnVision (Perkin Elmer) • Combi MultiDrop liquid dispenser with 8-channel small volume cassette • 384-well ProxiPlate (black)
Experimental Protocol • 1. Use Mosquito to dispense 100 nL/well of compounds (varying concentration in […]) into 384-well black ProxiPlate to make assay-ready-plate (ARP). • 2. Make assay buffer containing 25 mM Hepes pH 7.3, 100 mM NaCl, 5 mM MgCl2, 0.05% BSA, and 0.002% Tween-20. • 3. Make PRE-MIX A: delivers final concentrations of 50 nM of His6-KRas G12C-GTP (1-169) and 500 nM of tagless CypA (1-165) in assay buffer. • a. For presenter dependence experiments, omit addition of tagless CypA • b. For G12C/wt specificity experiments, substitute His6-KRas WT-GTP (1-169) for His6-KRas G12C-GTP (1-169) • 4. Use MultiDrop Combi to dispense PRE-MIX A into ARP, 7 μl/well. Incubate 3 hr at room temperature. • 5. Make PRE-MIX B: delivers final concentrations of 10 nM of anti-His Eu-W1024 and 50 nM of anti-GST APC. • 6. Use MultiDrop Combi to dispense PRE-MIX B into ARP, 3 μl/well. Shake briefly on Combi and incubate 1.5 hr at room temperature. • 7. Read on EnVision (Ex: 320 nm; Em1: 615 nm; Em2: 665 nm). • 8. Data is processed using Dotmatics. Curves are fit using a 4-parameter non-linear fit to determine the EC50 value for formation of the ternary complex.

Compound: COc1ccccc1-c1nc2ccc3cc2n1CCCOC(=O)[C@@H]1CCCN(N1)C(=O)[C@@H](NC(=O)[C@H](C(C)C)N(C)C(=O)C1CN(C(=O)CCl)C1)Cc1cc(O)cc-3c1 [Compound 168]
- Kd (cyclophilin A (CYPA)): ≤ 5 µM
- EC50 [1]: ≤ 0.5 µM

Compound: CC(C)C(C(=O)NC1Cc2cc(O)cc(c2)-c2ccc3c(C#N)cn(c3c2)CCCOC(=O)C2CCCN(N2)C1=O)N(C)C(=O)C1CN(C(=O)CCl)C1 (stereo not drawn) [Compound 101]
- Kd (cyclophilin A (CYPA)): ≤ 5 µM
- EC50 [1]: 0.5 to 5 µM

Compound: CC(C)[C@@H](C(=O)N[C@H]1Cc2cc(O)cc(c2)-c2ccc3nc(C4CCOCC4)n(c3c2)CCCOC(=O)[C@@H]2CCCN(N2)C1=O)N(C)C(=O)C1CN(C(=O)CCl)C1 [Compound 170]
- Kd (cyclophilin A (CYPA)): 5 to 15 µM
- EC50 [1]: 0.5 to 5 µM

Compound: CC1COC(=O)[C@@H]2CCCN(N2)C(=O)[C@@H](NC(=O)[C@H](C(C)C)N(C)C(=O)C2CN(C(=O)CCl)C2)Cc2cc(O)cc(c2)-c2ccc3c(C#N)cn(c3c2)C1 (single isomer, unassigned) [Compound 88]
- Kd (cyclophilin A (CYPA)): > 15 µM
- EC50 [1]: 0.5 to 5 µM

Compound: Cc1nc2ccc3cc2n1C[C@@H](C)COC(=O)[C@@H]1CCCN(N1)C(=O)[C@@H](NC(=O)[C@H](C(C)C)N(C)C(=O)C1CN(C(=O)CCl)C1)Cc1cc(O)cc-3c1 [Compound 148]
- Kd (cyclophilin A (CYPA)): > 15 µM
- EC50 [1]: 0.5 to 5 µM

Compound: C=CC(=O)N1CCN([C@H](C(=O)N[C@H]2Cc3cc(O)cc(c3)-c3ccc4nc(CC)n(c4c3)CCCOC(=O)[C@@H]3CCCN(N3)C2=O)C(C)C)C1=O [Compound 141]
- Kd (cyclophilin A (CYPA)): ≤ 5 µM
- EC50 [1]: 0.5 to 5 µM

Compound: Cc1nc2ccc3cc2n1CC(C)(C)COC(=O)[C@@H]1CCCN(N1)C(=O)[C@@H](NC(=O)[C@H](C(C)C)N(C)C(=O)CN1CC=CC1=O)Cc1cc(O)cc-3c1 [Compound 144]
- Kd (cyclophilin A (CYPA)): 5 to 15 µM
- EC50 [1]: > 5 µM

Compound: Cc1nc2ccc3cc2n1CC(C)(C)COC(=O)[C@@H]1CCCN(N1)C(=O)[C@@H](NC(=O)[C@H](C(C)C)N(C)C(=O)CNC(=O)CCl)Cc1cc(O)cc-3c1 [Compound 150]
- Kd (cyclophilin A (CYPA)): 5 to 15 µM
- EC50 [1]: 0.5 to 5 µM

Compound: C=CC(=O)N1CCN([C@H](C(=O)N[C@H]2Cc3cc(O)cc(c3)-c3ccc4ccn(c4c3)CCCOC(=O)[C@@H]3CCCN(N3)C2=O)C(C)C)C1=O [Compound 93]
- Kd (cyclophilin A (CYPA)): ≤ 5 µM
- EC50 [1]: > 5 µM

Compound: CC(C)C(C(=O)NC1Cc2cc(O)cc(c2)-c2ccc3c(C#N)cn(c3c2)CC(C)(C)COC(=O)C2CCCN(N2)C1=O)N(C)C(=O)C1CN(C(=O)CCl)C1 (stereo not drawn) [Compound 98]
- Kd (cyclophilin A (CYPA)): 5 to 15 µM
- EC50 [1]: ≤ 0.5 µM

Compound: CC1=C(C)C(=O)N(CC(=O)N(C)[C@H](C(=O)N[C@H]2Cc3cc(O)cc(c3)-c3ccc4ncn(c4c3)CCCOC(=O)[C@@H]3CCCN(N3)C2=O)C(C)C)C1=O [Compound 153]
- Kd (cyclophilin A (CYPA)): 5 to 15 µM
- EC50 [1]: > 5 µM

Compound: Cc1nc2ccc3cc2n1CC(O)COC(=O)C1CCCN(N1)C(=O)C(NC(=O)C(C(C)C)N(C)C(=O)C1CN(C(=O)CCl)C1)Cc1cc(O)cc-3c1 (mixture of isomers) [Compound 154]
- Kd (cyclophilin A (CYPA)): 5 to 15 µM
- EC50 [1]: 0.5 to 5 µM

Compound: CC(C)[C@@H](C(=O)N[C@H]1Cc2cc(O)cc(c2)-c2ccc3nc(-c4ccccc4C#N)n(c3c2)CCCOC(=O)[C@@H]2CCCN(N2)C1=O)N(C)C(=O)C1CN(C(=O)CCl)C1 [Compound 167]
- Kd (cyclophilin A (CYPA)): ≤ 5 µM
- EC50 [1]: 0.5 to 5 µM

Compound: C=CC(=O)N1CCN([C@H](C(=O)N[C@H]2Cc3cc(O)cc(c3)-c3ccc4nccc(c4c3)OCCOC(=O)[C@@H]3CCCN(N3)C2=O)C(C)C)C1=O [Compound 2, (2S)-2-(3-acryloyl-2-oxoimidazolidin-1-yl)-N-((6^3S,4S)-2^5-hydroxy-5,7-dioxo-6^1,6^2,6^3,6^4,6^5,6^6-hexahydro-8,11-dioxa-1(6,4)-quinolina-6(1,3)-pyridazina-2(1,3)-benzenacycloundecaphane-4-yl)-3-methylbutanamide]
- Kd (cyclophilin A (CYPA)): ≤ 5 µM
- EC50 [1]: > 5 µM

Compound: Cc1nc2ccc3cc2n1CC(C)(C)COC(=O)[C@@H]1CCCN(N1)C(=O)[C@@H](NC(=O)[C@H](C(C)C)N1CCN(C(=O)CCl)CC1=O)Cc1cc(O)cc-3c1 [Compound 146]
- Kd (cyclophilin A (CYPA)): 5 to 15 µM
- EC50 [1]: 0.5 to 5 µM

Compound: C=CC(=O)N1CC(C(=O)N(C)[C@H](C(=O)N[C@H]2Cc3cc(O)cc(c3)-c3ccc4nc(C)n(c4c3)CC(C)(C)COC(=O)[C@@H]3CCCN(N3)C2=O)C(C)C)C1 [Compound 145]
- Kd (cyclophilin A (CYPA)): 5 to 15 µM
- EC50 [1]: 0.5 to 5 µM

Compound: CC(C)[C@@H](C(=O)N[C@H]1Cc2cc(O)cc(c2)-c2ccc3ncn(c3c2)CCCOC(=O)[C@@H]2CCCN(N2)C1=O)N(C)C(=O)C1CN(C(=O)CCl)C1 [Compound 234, 1-(2-chloroacetyl)-N-((2S)-1-(((6^3S,4S)-2^5-hydroxy-5,7-dioxo-6^1,6^2,6^3,6^4,6^5,6-hexahydro-1^1H-8-oxa-1(6,1)-benzo[d]imidazola-6(1,3)-pyridazina-2(1,3)-benzenacycloundecaphane-4-yl)amino)-3-methyl-1-oxobutan-2-yl)-N-methylazetidine-3-carboxamide]
- Kd (cyclophilin A (CYPA)): ≤ 5 µM

Compound: CC1CCn2cnc3ccc(cc32)-c2cc(O)cc(c2)CC(NC(=O)C(C(C)C)N(C)C(=O)C2CN(C(=O)CCl)C2)C(=O)N2CCCC(N2)C(=O)O1 (mixture of isomers) [Compound 140]
- Kd (cyclophilin A (CYPA)): > 15 µM
- EC50 [1]: 0.5 to 5 µM

Compound: C=CC(=O)N1CCN(C(C(=O)NC2Cc3cc(O)cc(c3)-c3ccc4c(C#N)cn(c4c3)CCCOC(=O)C3CCCN(N3)C2=O)C(C)C)C1=O (stereo not drawn) [Compound 94]
- Kd (cyclophilin A (CYPA)): ≤ 5 µM
- EC50 [1]: 0.5 to 5 µM

Compound: CC1=C(C)C(=O)N(CC(=O)N(C)[C@H](C(=O)N[C@H]2Cc3cc(O)cc(c3)-c3ccc4nc(C)n(c4c3)CC(C)(C)COC(=O)[C@@H]3CCCN(N3)C2=O)C(C)C)C1=O [Compound 171]
- Kd (cyclophilin A (CYPA)): 5 to 15 µM
- EC50 [1]: 0.5 to 5 µM

Compound: C=CC(=O)N1CCN([C@H](C(=O)N[C@H]2Cc3cc(O)cc(c3)-c3ccc4c(CC#N)cn(c4c3)CCCOC(=O)[C@@H]3CCCN(N3)C2=O)C(C)C)C1=O [Compound 96]
- Kd (cyclophilin A (CYPA)): ≤ 5 µM
- EC50 [1]: 0.5 to 5 µM

Compound: C=CC(=O)N1CCN([C@H](C(=O)N[C@H]2Cc3cncc(c3)-c3ccc4nc(CC)n(c4c3)CCCOC(=O)[C@@H]3CCCN(N3)C2=O)C(C)C)C1=O [Compound 4, (2S)-2-(3-acryloyl-2-oxoimidazolidin-1-yl)-N-((6^3S,4S)-12-ethyl-5,7-dioxo-6^1,6^2,6^3,6^4,6^5,6^6-hexahydro-1^1H-8-oxa-1(6,1)-benzo[d]imidazola-6(1,3)-pyridazina-2(3,5)-pyridinacycloundecaphane-4-yl)-3-methylbutanamide]
- Kd (cyclophilin A (CYPA)): 5 to 15 µM
- EC50 [1]: > 5 µM

Compound: C=CC(=O)N1CCN([C@H](C(=O)N[C@H]2Cc3cc(O)cc(c3)-c3ccc4c(=O)n(C)n(c4c3)CCCOC(=O)[C@@H]3CCCN(N3)C2=O)C(C)C)C1=O [Compound 174]
- Kd (cyclophilin A (CYPA)): ≤ 5 µM
- EC50 [1]: > 5 µM
